Our source for the IC50 values is patent publication US20250163104A1, “MACROCYCLIC IMMUNOMODULATORS” (priority 2021, published 2025).

A word on the IC50: it is the point on the concentration scale where inhibition reaches its midpoint.

This assay deals with T1, human PD-1 / PD-L1-Ig binding on Jurkat cell line over-expressing human PD-1 (Jurkat-PD-1) (Homo sapiens, UniProt Q15116).
T1 construct: expressed in transfected cells; host or cells: Jurkat
Nature of the assay: Jurkat-PD-1 Cell Binding High-Content Screening Assay (CBA). In kind it is cell-based. The settings on record: PE-labeled PD-L1-Ig 20 nM final. In outline: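 Compounds were preincubated with Jurkat-hPD-1 cells in DMEM plus 10% fetal calf serum for 2 h at 37° C. Phycoerythrin-labeled PD-L1-Ig (20 nM final) was then added for 1 hour. Cells were fixed in 4% paraformaldehyde with Hoechst 33342, and bound fluorescence was quantified by high-content imaging.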

[1] abbreviates: Jurkat-PD-1 cells, read-out: Jurkat HPD1_PDL1 IC50.

Read-outs that look alike come from different tables or passages of the source. *1 amine or outer side, *2 acyl side, *3 side chain or, on linkers, in order; H or OH if unused. Where a SMILES comes first, the peptide text is derived from it. Bridges are numbered along the chain shown (N, C = ends). [ ]: non-standard residue; d: D form. The star is where a group is joined. Phe(3,4-Cl2) = N[C@@H](Cc1ccc(Cl)c(Cl)c1)C(=O)O; Phe(3-CF3) = N[C@@H](Cc1cccc(C(F)(F)F)c1)C(=O)O; Ala(morpholin-4-yl) = N[C@@H](CN1CCOCC1)C(=O)O; Phe(3-COOH) = N[C@@H](Cc1cccc(C(=O)O)c1)C(=O)O; Phe(4-CONH2) = NC(=O)c1ccc(C[C@H](N)C(=O)O)cc1; Phe(4-COOH) = N[C@@H](Cc1ccc(C(=O)O)cc1)C(=O)O; Bip = N[C@@H](Cc1ccc(-c2ccccc2)cc1)C(=O)O; Phe(3-Me) = Cc1cccc(C[C@H](N)C(=O)O)c1; Val(3-OH) = CC(C)(O)[C@H](N)C(=O)O; 4Pal = N[C@@H](Cc1ccncc1)C(=O)O; Cha = N[C@@H](CC1CCCCC1)C(=O)O; X6 = O=C(C(CCCO)N[*:1])[*:2]; Carboxymethyl = O=C(O)C*; Orn = NCCC[C@H](N)C(=O)O; Dab = NCC[C@H](N)C(=O)O; Dap = NC[C@H](N)C(=O)O

T1 sequence (Q15116 25-288): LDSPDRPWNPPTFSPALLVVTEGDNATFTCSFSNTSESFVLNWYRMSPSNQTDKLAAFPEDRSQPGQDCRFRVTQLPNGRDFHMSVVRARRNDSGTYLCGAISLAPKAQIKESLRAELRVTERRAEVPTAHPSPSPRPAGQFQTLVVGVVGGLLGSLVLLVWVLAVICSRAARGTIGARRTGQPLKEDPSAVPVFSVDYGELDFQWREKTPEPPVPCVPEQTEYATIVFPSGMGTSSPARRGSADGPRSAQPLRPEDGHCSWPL

Turning to `CC(C)C[C@@H]1NC(=O)[C@H](Cc2c[nH]c3ccccc23)NC(=O)[C@H](CC(=O)O)NC(=O)[C@H](Cc2ccc(C(=O)O)cc2)NC(=O)[C@H](Cc2cccc(C(=O)O)c2)NC(=O)CSC[C@@H](C(=O)NCC(N)=O)NC(=O)[C@H](CO)NC(=O)[C@H](C(C)C)NC(=O)[C@H](CC2CCCCC2)NC(=O)[C@H](CCN)NC(=O)[C@@H](CC(C)C)NC(=O)[C@H](CCCN)NC(=O)[C@H](C(C)C)NC(=O)[C@H](Cc2ccc(-c3ccccc3)cc2)NC1=O` [Compound 2014] ({CH2CO}-[Phe(3-COOH)][Phe(4-COOH)]DWL[Bip]V[Orn][dL][Dab][Cha]VSCG-NH2; thioether N-14), under setting [1], the IC50 turned out to be 17.2 nM. As to `CC(C)C[C@H]1NC(=O)[C@H](CCCN)NC(=O)[C@H](CCC(=O)O)NC(=O)[C@H](Cc2ccc(-c3ccccc3)cc2)NC(=O)[C@H](C(C)C)NC(=O)[C@H](Cc2c[nH]c3ccccc23)NC(=O)[C@H](CC(=O)O)NC(=O)[C@H](Cc2ccncc2)NC(=O)[C@H](Cc2ccc(OCC(=O)O)cc2)NC(=O)CSC[C@@H](C(=O)N[C@@H](C)C(N)=O)NC(=O)[C@H]([C@@H](C)O)NC(=O)[C@H](C(C)C)NC(=O)[C@H](CC2CCCCC2)NC(=O)[C@H](Cc2c[nH]cn2)NC1=O` [Compound 1605], for the setting “Jurkat HPD1_PDL1 IC50, Jurkat-PD-1 cells”, the IC50 is 23.1 nM. On to `CC(C)C[C@H]1NC(=O)[C@H](CCCN)NC(=O)[C@H](CCC(=O)O)NC(=O)[C@H](Cc2ccc(-c3ccccc3)cc2)NC(=O)[C@H](C(C)C)NC(=O)[C@H](Cc2c[nH]c3ccccc23)NC(=O)[C@H](CC(=O)O)NC(=O)[C@H](Cc2ccc(-c3cccc(C(=O)O)c3)cc2)NC(=O)[C@H](Cc2ccc(OCC(=O)O)cc2)NC(=O)CSC[C@@H](C(=O)N[C@@H](C)C(N)=O)NC(=O)[C@H]([C@@H](C)O)NC(=O)[C@H](C(C)C)NC(=O)[C@H](CC2CCCCC2)NC(=O)[C@H](CCN)NC1=O` [Compound 2163], for which, under setting [1], the IC50 is 17.6 nM. In the case of `Cc1ccc(C[C@@H]2NC(=O)[C@H](CC(=O)O)NC(=O)[C@H](Cc3ccc(OCC(=O)O)cc3)NC(=O)[C@H](CN)NC(=O)CSC[C@@H](C(=O)N[C@@H](C)C(N)=O)NC(=O)[C@H]([C@@H](C)O)NC(=O)[C@H](C(C)C)NC(=O)[C@H](CC3CCCCC3)NC(=O)[C@H](CCN)NC(=O)[C@@H](CC(C)C)NC(=O)[C@H](CCCN)NC(=O)[C@H](CCC(=O)O)NC(=O)[C@H](Cc3ccc(-c4ccccc4)cc3)NC(=O)[C@H](C(C)C)NC2=O)cc1` [Compound 2139], under setting [1], the IC50 was 71.6 nM.

Regarding `Cc1cccc(C[C@@H]2NC(=O)[C@H](CC(=O)O)NC(=O)[C@H](Cc3ccc(OCC(=O)O)cc3)NC(=O)[C@H](CN)NC(=O)CSC[C@@H](C(=O)N[C@@H](CCN)C(N)=O)NC(=O)C(CCCO)NC(=O)[C@H](C(C)C)NC(=O)[C@H](CC3CCCCC3)NC(=O)[C@H](CCN)NC(=O)[C@@H](CC(C)C)NC(=O)[C@H](CCCN)NC(=O)[C@H](Cc3ccc(O)cc3)NC(=O)[C@H](Cc3ccc(-c4ccccc4)cc3)NC(=O)[C@H](C(C)C)NC2=O)c1` (stereo partly drawn) [Compound 2257] ({CH2CO}-[Dap]Y(Carboxymethyl)D[Phe(3-Me)]V[Bip]Y[Orn][dL][Dab][Cha]V[X6]C[Dab]-NH2; thioether N-14), the IC50 under setting [1] was found to be 7.7 nM. Regarding `CC(C)C[C@H]1NC(=O)[C@H](CCCN)NC(=O)[C@H](C(C)C)NC(=O)[C@H](Cc2ccc(-c3ccccc3)cc2)NC(=O)[C@H](C(C)C)NC(=O)[C@H](Cc2c[nH]c3ccccc23)NC(=O)[C@H](CC(=O)O)NC(=O)[C@H](Cc2ccc(C(=O)O)cc2)NC(=O)[C@H](Cc2ccc(OCC(=O)O)cc2)NC(=O)CSC[C@@H](C(=O)N[C@@H](C)C(N)=O)NC(=O)[C@H](CCCCN)NC(=O)[C@H](C(C)C)NC(=O)[C@H](CC2CCCCC2)NC(=O)[C@H](CCN)NC1=O` [Compound 1745] ({CH2CO}-Y(Carboxymethyl)[Phe(4-COOH)]DWV[Bip]V[Orn][dL][Dab][Cha]VKCA-NH2; thioether N-14), the IC50 under setting [1] worked out at 4 nM. The same measure, in the same setting: under `Cc1cccc(C[C@@H]2NC(=O)[C@H](CC(=O)O)NC(=O)[C@H](Cc3ccc(OCC(=O)O)cc3)NC(=O)[C@H](CN)NC(=O)CSC[C@@H](C(=O)N[C@@H](C)C(N)=O)NC(=O)[C@H](CCCCN)NC(=O)[C@H](C(C)C)NC(=O)[C@H](CC3CCCCC3)NC(=O)[C@H](CCN)NC(=O)[C@@H](CC(C)C)NC(=O)[C@H](CCCN)NC(=O)[C@H](C(C)C)NC(=O)[C@H](Cc3ccc(-c4ccccc4)cc3)NC(=O)[C@H](C(C)C)NC2=O)c1` [Compound 1755] ({CH2CO}-[Dap]Y(Carboxymethyl)D[Phe(3-Me)]V[Bip]V[Orn][dL][Dab][Cha]VKCA-NH2; thioether N-14) stands 8.4 nM; under `CC(C)C[C@H]1NC(=O)[C@H](CCCN)NC(=O)[C@H](C(C)C)NC(=O)[C@H](Cc2ccc(-c3ccccc3)cc2)NC(=O)[C@H](C(C)C)NC(=O)[C@H](Cc2c[nH]c3ccccc23)NC(=O)[C@H](CC(=O)O)NC(=O)[C@H](Cc2ccc(OCC(=O)O)cc2)NC(=O)[C@H](CN)NC(=O)CSC[C@@H](C(=O)N[C@@H](C)C(N)=O)NC(=O)[C@H](CN)NC(=O)[C@H](C(C)C)NC(=O)[C@H](CC2CCCCC2)NC(=O)[C@H](CCN)NC1=O` [Compound 1738] ({CH2CO}-[Dap]Y(Carboxymethyl)DWV[Bip]V[Orn][dL][Dab][Cha]V[Dap]CA-NH2; thioether N-14), 8.3 nM; under `CCC(C)[C@@H]1NC(=O)[C@H](Cc2ccc(-c3ccccc3)cc2)NC(=O)[C@H](C(C)C)NC(=O)[C@H](Cc2cccc(C)c2C)NC(=O)[C@H](CC(=O)O)NC(=O)[C@H](Cc2ccc(OCC(=O)O)cc2)NC(=O)[C@H](CN)NC(=O)CSC[C@@H](C(=O)N[C@@H](C)C(N)=O)NC(=O)[C@H]([C@@H](C)O)NC(=O)[C@H](C(C)C)NC(=O)[C@H](CC2CCCCC2)NC(=O)[C@H](CCN)NC(=O)[C@@H](CC(C)C)NC(=O)[C@H](CCCN)NC1=O` (some centres unmarked) [Compound 2242], 10.3 nM. Same read-out and setting: to `CC(C)C[C@H]1NC(=O)[C@H](CCCN)NC(=O)[C@H](Cc2ccc(C(=O)O)cc2)NC(=O)[C@H](Cc2ccc(-c3ccccc3)cc2)NC(=O)[C@H](Cc2ccc(Cl)c(Cl)c2)NC(=O)[C@H](Cc2cccc(C(F)(F)F)c2)NC(=O)[C@H](CC(=O)O)NC(=O)[C@H](Cc2ccc(C(=O)O)cc2)NC(=O)[C@H](CN2CCOCC2)NC(=O)CSC[C@@H](C(=O)N[C@@H](CCN)C(N)=O)NC(=O)[C@H](CCC(=O)O)NC(=O)[C@H](C(C)C)NC(=O)[C@H](CC2CCCCC2)NC(=O)[C@H](CCN)NC1=O` [Example 2745] ({CH2CO}-[Ala(morpholin-4-yl)][Phe(4-COOH)]D[Phe(3-CF3)][Phe(3,4-Cl2)][Bip][Phe(4-COOH)][Orn][dL][Dab][Cha]VEC[Dab]-NH2; thioether N-14) belongs 2.3 nM; to `Cc1cccc(C[C@@H]2NC(=O)[C@H](CC(=O)O)NC(=O)[C@H](Cc3ccc(OCC(=O)O)cc3)NC(=O)[C@H](Cc3ccncc3)NC(=O)CSC[C@@H](C(=O)N[C@H](CC(N)=O)C(N)=O)NC(=O)[C@H](CO)NC(=O)[C@H](C(C)(C)O)NC(=O)[C@H](CC3CCCCC3)NC(=O)[C@H](CCN)NC(=O)[C@@H](CC(C)C)NC(=O)[C@H](CCCN)NC(=O)[C@H](Cc3ccc(O)cc3)NC(=O)[C@H](Cc3ccc(-c4ccccc4)cc3)NC(=O)[C@H](Cc3ccc(C(N)=O)cc3)NC2=O)c1` [Compound 2657] ({CH2CO}-[4Pal]Y(Carboxymethyl)D[Phe(3-Me)][Phe(4-CONH2)][Bip]Y[Orn][dL][Dab][Cha][Val(3-OH)]SC[dN]-NH2; thioether N-14), 8.9 nM.
